# Values quoted from earlier work in patent US6987099B2, “Uncomplexed cyclodextrin compositions for odor control” (The Procter & Gamble Company, priority 1997, dated 2006).
# Where a name gives a salt, the structure may show the parent alone.
row,Structure (SMILES),solubility in water
1,OCCOc1ccccc1 [2-phenoxyethanol],about 2.67%
2,OCCc1ccccc1 [2-phenylethanol],about 2%
3,"O=[N+]([O-])C1(Br)COCOC1 [Bronidox L, 5-bromo-5-nitro-1,3-dioxane]",about 0.46%
4,"CC1(C)C(=O)N(CO)C(=O)N1CO [DMDM hydantoin, 1,3-bis(hydroxymethyl)-5,5-dimethyl-2,4-imidazolidinedione]",more than 50%
5,"ClC=CC[N+]12CN3CN(CN(C3)C1)C2.[Cl-] [Dowicil 200, 1-(3-Chlorallyl)-3,5,7-triaza-1-azoniaadamantane chloride]",freely soluble in water
6,OCc1ccccc1 [benzyl alcohol],about 4%
7,"CC(C)(O)C(Cl)(Cl)Cl [chlorobutanol, 1,1,1-Trichloro-2-methylpropan-2-ol]",about 0.8%
8,"[H]/N=C(\N/C(=N/[H])NCCCCCCNC(=N)NC(=N)Nc1ccc(Cl)cc1)Nc1ccc(Cl)cc1 [diacetate salt, 1,1′-hexamethylene bis(5-(p-chlorophenyl)biguanide), reference compound]",about 1.8%
9,"[H]/N=C(\N/C(=N/[H])NCCCCCCNC(=N)NC(=N)Nc1ccc(Cl)cc1)Nc1ccc(Cl)cc1 [digluconate salt, 1,1′-hexamethylene bis(5-(p-chlorophenyl)biguanide), reference compound]",about 70%
10,[Na+].[O-][n+]1ccccc1[S-] [sodium pyrithione],about 50%
